# Test results: patent US10358436B2, “Kinase inhibitors and method of treating cancer” (University Health Network, priority 2010, dated 2019)
# Structures can show the parent of a compound that is named as a salt.
# Molecular target: Aurora A (Homo sapiens (Human), UniProt O14965)
# Assay: Aurora A inhibition assay (Z-Lyte)
# Assay type: biochemical
# Chain of Aurora A (O14965 whole entry): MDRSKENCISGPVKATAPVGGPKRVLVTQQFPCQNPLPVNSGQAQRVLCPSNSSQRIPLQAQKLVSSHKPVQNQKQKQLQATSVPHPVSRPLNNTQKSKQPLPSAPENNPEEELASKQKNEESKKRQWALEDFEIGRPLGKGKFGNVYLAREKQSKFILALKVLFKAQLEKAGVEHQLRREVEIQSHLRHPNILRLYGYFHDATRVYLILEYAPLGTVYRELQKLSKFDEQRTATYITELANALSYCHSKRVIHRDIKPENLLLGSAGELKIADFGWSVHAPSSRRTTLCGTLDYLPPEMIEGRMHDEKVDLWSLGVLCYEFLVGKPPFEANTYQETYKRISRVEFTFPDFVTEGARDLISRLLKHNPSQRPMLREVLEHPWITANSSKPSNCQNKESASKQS
structure (smiles),measurement,value
"O=C1Nc2ccccc2[C@]12C[C@H]2c1ccc2c(/C=C/c3ccc(OCCN4CCOCC4)cc3)n[nH]c2c1 [Example A204, (1R,2S)-(E)-2-(3-(4-(2-morpholinoethoxy)styryl)-1H-indazol-6-yl)spiro[cyclopropane-1,3′-indolin]-2′-one 2,2,2-trifluoroacetate]",inhibition at 1 µM,> 50%
"COc1ccc2c(c1)[C@]1(C[C@H]1c1ccc3c(-c4ccc5c(c4)CNCC5)n[nH]c3c1)C(=O)N2 [Example A71, (1R,2S)-5′-methoxy-2-(3-(1,2,3,4-tetrahydroisoquinolin-7-yl)-1H-indazol-6-yl)spiro[cyclopropane-1,3′-indolin]-2′-one 2,2,2-trifluoroacetate salt]",inhibition at 1 µM,< 50%
"COc1ccc2c(c1)[C@]1(C[C@H]1c1ccc3c(-c4ccc(CN(C)C)cc4)n[nH]c3c1)C(=O)N2 (relative stereo) [Example A166, (1R*,2S*)-2-(3-(4-((dimethylamino)methyl)phenyl)-1H-indazol-6-yl)-5′-methoxyspiro[cyclopropane-1,3′-indolin]-2′-one 2,2,2-trifluoroacetate]",inhibition at 1 µM,< 50%
"Cc1ccc(/C=C/c2n[nH]c3cc([C@@H]4C[C@@]45C(=O)Nc4ccccc45)ccc23)c(C)n1 (relative stereo) [Example A158, (1R*,2S*)-2-(3-((E)-2-(2,6-dimethylpyridin-3-yl)vinyl)-1H-indazol-6-yl)spiro[cyclopropane-1,3′-indolin]-2′-one]",inhibition at 1 µM,> 50%
"CN1CCN(c2ccc(-c3n[nH]c4cc([C@@H]5C[C@@]56C(=O)Nc5ccc(Br)cc56)ccc34)cn2)CC1 (relative stereo) [Example A19, (1R*,2S*)-5′-bromo-2-(3-(6-(4-methylpiperazin-1-yl)pyridin-3-yl)-1H-indazol-6-yl)spiro[cyclopropane-1,3′-indolin]-2′-one]",inhibition at 1 µM,< 50%
"COc1ccc2c(c1)[C@]1(C[C@H]1c1ccc3c(/C=C/c4ccc(N5CCN(C)CC5)cc4)n[nH]c3c1)C(=O)N2 (relative stereo) [Example A174, (1R*,2S*)-(E)-5′-methoxy-2-(3-(4-(4-methylpiperazin-1-yl)styryl)-1H-indazol-6-yl)spiro[cyclopropane-1,3′-indolin]-2′-one 2,2,2-trifluoroacetate]",inhibition at 1 µM,> 50%
"COc1ccc2c(c1)[C@]1(C[C@H]1c1ccc3c(-c4ccc(C5CCNCC5)cc4)n[nH]c3c1)C(=O)N2 (relative stereo) [Example A122, (1R*,2S*)-5′-methoxy-2-(3-(4-(piperidin-4-yl)phenyl)-1H-indazol-6-yl)spiro[cyclopropane-1,3′-indolin]-2′-one 2,2,2-trifluoroacetate]",inhibition at 1 µM,< 50%
"COc1ccc2c(c1)[C@]1(C[C@H]1c1ccc3c(-c4ccc5c(c4)CN(C)CC5)n[nH]c3c1)C(=O)N2 [Example A70, (1R,2S)-5′-methoxy-2-(3-(2-methyl-1,2,3,4-tetrahydroisoquinolin-7-yl)-1H-indazol-6-yl)spiro[cyclopropane-1,3′-indolin]-2′-one 2,2,2-trifluoroacetate salt]",inhibition at 1 µM,< 50%
"COc1ccc2c(c1)[C@]1(C[C@H]1c1ccc3c(-c4ccc(OCCN5CCOCC5)cc4)n[nH]c3c1)C(=O)N2 [Example A68, (1R,2S)-5′-methoxy-2-(3-(4-(2-morpholinoethoxy)phenyl)-1H-indazol-6-yl)spiro[cyclopropane-1,3′-indolin]-2′-one 2,2,2-trifluoroacetate salt]",inhibition at 1 µM,< 50%
"CCN1CCN(c2ccc(/C=C/c3n[nH]c4cc([C@@H]5C[C@@]56C(=O)Nc5ccc(OC)cc56)ccc34)cc2)CC1 [Example A187, (1R,2S)-(E)-2-(3-(4-(4-ethylpiperazin-1-yl)styryl)-1H-indazol-6-yl)-5′-methoxyspiro[cyclopropane-1,3′-indolin]-2′-one 2,2,2-trifluoroacetate]",inhibition at 1 µM,> 50%
"COc1ccc2c(c1)[C@]1(C[C@H]1c1ccc3c(-c4cccc(CN5CCOCC5)c4)n[nH]c3c1)C(=O)N2 (relative stereo) [Example A136, (1R*,2S*)-5′-methoxy-2-(3-(3-(morpholinomethyl)phenyl)-1H-indazol-6-yl)spiro[cyclopropane-1,3′-indolin]-2′-one 2,2,2-trifluoroacetate]",inhibition at 1 µM,< 50%
"COc1ccc2c(c1)[C@]1(C[C@H]1c1ccc3c(/C=C/c4ccncc4)n[nH]c3c1)C(=O)N2 [Example A111, (1R,2S)-5′-methoxy-2-(3-((E)-2-(pyridin-4-yl)vinyl)-1H-indazol-6-yl)spiro[cyclopropane-1,3′-indolin]-2′-one 2,2,2-trifluoroacetate]",inhibition at 1 µM,> 50%
"COc1ccc2c(c1)[C@]1(C[C@H]1c1ccc3c(-c4ccc(N5CCN(C6CCCC6)CC5)cc4)n[nH]c3c1)C(=O)N2 [Example A192, (1R,2S)-2-(3-(4-(4-cyclopentylpiperazin-1-yl)phenyl)-1H-indazol-6-yl)-5′-methoxyspiro[cyclopropane-1,3′-indolin]-2′-one 2,2,2-trifluoroacetate]",inhibition at 1 µM,< 50%
"CN(C)Cc1ccc(/C=C/c2n[nH]c3cc([C@@H]4C[C@@]45C(=O)Nc4ccc(OC(F)F)cc45)ccc23)cc1 (relative stereo) [Example A214, (1R*,2S*)-(E)-5′-difluoromethoxy-2-(3-(4-((dimethylamino)methyl)styryl)-1H-indazol-6-yl)spiro[cyclopropane-1,3′-indolin]-2′-one 2,2,2-trifluoroacetate]",inhibition at 1 µM,> 50%
"CN1CCN(c2ccc(/C=C/c3n[nH]c4cc([C@@H]5C[C@@]56C(=O)N(C)c5ccccc56)ccc34)cn2)CC1 [Example A110, (1R,2S)-1′-methyl-2-(3-((E)-2-(6-(4-methylpiperazin-1-yl)pyridin-3-yl)vinyl)-1H-indazol-6-yl)spiro[cyclopropane-1,3′-indolin]-2′-one bis(2,2,2-trifluoroacetate)]",inhibition at 1 µM,> 50%
"COc1ccc2c(c1)[C@]1(C[C@H]1c1ccc3c(-c4ccc(OCCn5ccnc5)cc4)n[nH]c3c1)C(=O)N2 [Example A108, (1R,2S)-2-(3-(4-(2-(1H-imidazol-1-yl)ethoxy)phenyl)-1H-indazol-6-yl)-5′-methoxyspiro[cyclopropane-1,3′-indolin]-2′-one 2,2,2-trifluoroacetate]",inhibition at 1 µM,< 50%
"COc1ccc2c(c1)C1(CC1c1ccc3c(I)n[nH]c3c1)C(=O)N2 (single isomer, unassigned) [Example A6, (1R*,2S*)- and (1R*,2R*)-2-(3-iodo-1H-indazol-6-yl)-5′-methoxyspiro-[cyclopropane-1,3′-indolin]-2′-one]",inhibition at 1 µM,< 50%
"COc1ccc2c(c1)[C@]1(C[C@H]1c1ccc3c(-c4ccc5nccn5c4)n[nH]c3c1)C(=O)N2 [Example A107, (1R,2S)-2-(3-(imidazo[1,2-a]pyridin-6-yl)-1H-indazol-6-yl)-5′-methoxyspiro[cyclopropane-1,3′-indolin]-2′-one 2,2,2-trifluoroacetate]",inhibition at 1 µM,< 50%
"COc1ccc2c(c1)[C@]1(C[C@H]1c1ccc3c(-c4ccc(N5CCC(N(C)C)CC5)cc4)n[nH]c3c1)C(=O)N2 (relative stereo) [Example A119, (1R*,2S*)-2-(3-(4-(4-(dimethylamino)piperidin-1-yl)phenyl)-1H-indazol-6-yl)-5′-methoxyspiro[cyclopropane-1,3′-indolin]-2′-one 2,2,2-trifluoroacetate]",inhibition at 1 µM,< 50%
"COc1ccc2c(c1)[C@]1(C[C@H]1c1ccc3c(/C=C/c4ccc5c(c4)CCN(C)C5)n[nH]c3c1)C(=O)N2 [Example A75, (1R,2S)-5′-methoxy-2-(3-((E)-2-(2-methyl-1,2,3,4-tetrahydroisoquinolin-6-yl)vinyl)-1H-indazol-6-yl)spiro[cyclopropane-1,3′-indolin]-2′-one 2,2,2-trifluoroacetate salt]",inhibition at 1 µM,> 50%
"COc1ccc2c(c1)[C@]1(C[C@H]1c1ccc3c(/C=C/c4cc(F)c(CN(C)C)c(F)c4)n[nH]c3c1)C(=O)N2 [Example A216, (1R,2S)-(E)-2-(3-(4-((dimethylamino)methyl)-3,5-difluorostyryl)-1H-indazol-6-yl)-5′-methoxyspiro[cyclopropane-1,3′-indolin]-2′-one 2,2,2-trifluoroacetate]",inhibition at 1 µM,> 50%
"COc1ccc2c(c1)[C@]1(C[C@H]1c1ccc3c(-c4ccc(N5CCC(N(C)C)CC5)cc4)n[nH]c3c1)C(=O)N2 [Example A120, (1R,2S)-2-(3-(4-(4-(dimethylamino)piperidin-1-yl)phenyl)-1H-indazol-6-yl)-5′-methoxyspiro[cyclopropane-1,3′-indolin]-2′-one 2,2,2-trifluoroacetate]",inhibition at 1 µM,< 50%
"COc1ccc2c(c1)[C@]1(C[C@H]1c1ccc3c(-c4ccc(N5CCC(N6CCOCC6)CC5)cc4)n[nH]c3c1)C(=O)N2 [Example A121, (1R,2S)-5′-methoxy-2-(3-(4-(4-morpholinopiperidin-1-yl)phenyl)-1H-indazol-6-yl)spiro[cyclopropane-1,3′-indolin]-2′-one 2,2,2-trifluoroacetate]",inhibition at 1 µM,< 50%
"O=C1Nc2ccccc2[C@]12C[C@H]2c1ccc2c(/C=C/c3ccc(CN4CCCC4)cc3)n[nH]c2c1 [Example A61, (1R,2S)-(E)-2-(3-(4-(pyrolidin-1-ylmethyl)styryl)-1H-indazol-6-yl)spiro[cyclopropane-1,3′-indolin]-2′-one 2,2,2-trifluoroacetate]",inhibition at 1 µM,> 50%
"COc1ccc2c(c1)[C@]1(C[C@H]1c1ccc3c(/C=C/c4ccc(CN5CCCCC5)cc4)n[nH]c3c1)C(=O)N2 [Example A59, (1R,2S)-(E)-5′-methoxy-2-(3-(4-(piperidin-1-ylmethyl)styryl)-1H-indazol-6-yl)spiro[cyclopropane-1,3′-indolin]-2′-one 2,2,2-trifluoroacetate salt]",inhibition at 1 µM,> 50%
"CN1C(=O)[C@@]2(C[C@H]2c2ccc3c(/C=C/c4ccc(CN5CCCC5)cc4)n[nH]c3c2)c2ccccc21 [Example A115, (1R,2S)-(E)-1′-methyl-2-(3-(4-(pyrrolidin-1-ylmethyl)styryl)-1H-indazol-6-yl)spiro[cyclopropane-1,3′-indolin]-2′-one 2,2,2-trifluoroacetate]",inhibition at 1 µM,< 50%
